Test results reported in the supplement of paper PMC10307832.

What was measured:
Experiment in all cases: relative viability (nuclei count vs DMSO), 5 days (fraction); higher = more cells survive
BAY61-3606 + Trametinib = compound: COC1=C(C=C(C=C1)C2=CC3=NC=CN3C(=N2)NC4=C(C=CC=N4)C(=O)N)OC [BAY61-3606] + CC(=O)Nc1cccc(-n2c(=O)n(C3CC3)c(=O)c3c(Nc4ccc(I)cc4F)n(C)c(=O)c(C)c32)c1 [Trametinib] (partner 0.02 µM)
Method in brief: (§1)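 Relative viability is defined as nuclei in treated wells over nuclei in vehicle wells. Duplicate plates were run and medians reported. Lung cancer cell lines in 1536-well plates were dosed by pin tool one day after seeding, with one drug or with a fixed anchor-drug dose plus five library-drug doses (not always all listed) in √10 steps, and nuclei were counted after 5 days.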

BAY61-3606 + Pictilisib = compound: COC1=C(C=C(C=C1)C2=CC3=NC=CN3C(=N2)NC4=C(C=CC=N4)C(=O)N)OC [BAY61-3606] + CS(=O)(=O)N1CCN(Cc2cc3nc(-c4cccc5[nH]ncc45)nc(N4CCOCC4)c3s2)CC1 [Pictilisib] (partner 1 µM)
Method in brief: as §1

Doxorubicin + Lapatinib = compound: COc1cccc2c1C(=O)c1c(O)c3c(c(O)c1C2=O)C[C@@](O)(C(=O)CO)C[C@@H]3O[C@H]1C[C@H](N)[C@H](O)[C@H](C)O1 [Doxorubicin] + CS(=O)(=O)CCNCc1ccc(-c2ccc3ncnc(Nc4ccc(OCc5cccc(F)c5)c(Cl)c4)c3c2)o1 [Lapatinib] (partner 2 µM)
Method in brief: as §1

Doxorubicin + Olaparib = compound: COc1cccc2c1C(=O)c1c(O)c3c(c(O)c1C2=O)C[C@@](O)(C(=O)CO)C[C@@H]3O[C@H]1C[C@H](N)[C@H](O)[C@H](C)O1 [Doxorubicin] + O=C(c1cc(Cc2n[nH]c(=O)c3ccccc23)ccc1F)N1CCN(C(=O)C2CC2)CC1 [Olaparib] (partner 8 µM)
Method in brief: as §1

UMC-11
relative viability (BAY61-3606 + Trametinib; first compound 0.02 µM): 0.823 | relative viability (BAY61-3606 + Trametinib; first compound 0.06325 µM): 0.63 | relative viability (BAY61-3606 + Trametinib; first compound 0.2 µM): 0.509 | relative viability (BAY61-3606 + Trametinib; first compound 0.6325 µM): 0.759 | relative viability (BAY61-3606 + Trametinib; first compound 2 µM): 0.688 | relative viability (BAY61-3606 + Pictilisib; first compound 0.02 µM): 0.851 | relative viability (BAY61-3606 + Pictilisib; first compound 0.06325 µM): 0.799 | relative viability (BAY61-3606 + Pictilisib; first compound 0.2 µM): 0.527 | relative viability (BAY61-3606 + Pictilisib; first compound 0.6325 µM): 0.922 | relative viability (BAY61-3606 + Pictilisib; first compound 2 µM): 0.622 | relative viability (Doxorubicin + Lapatinib; first compound 0.001 µM): 1.22 | relative viability (Doxorubicin + Lapatinib; first compound 0.003162 µM): 1.13 | relative viability (Doxorubicin + Lapatinib; first compound 0.01 µM): 0.906 | relative viability (Doxorubicin + Lapatinib; first compound 0.03162 µM): 0.514 | relative viability (Doxorubicin + Lapatinib; first compound 0.1 µM): 0.456 | relative viability (Doxorubicin + Olaparib; first compound 0.001 µM): 0.38 | relative viability (Doxorubicin + Olaparib; first compound 0.003162 µM): 0.401 | relative viability (Doxorubicin + Olaparib; first compound 0.01 µM): 0.322 | relative viability (Doxorubicin + Olaparib; first compound 0.03162 µM): 0.302 | relative viability (Doxorubicin + Olaparib; first compound 0.1 µM): 0.275
